From patent publication US8957129B2, “Aqueous coatings and paints incorporating one or more antimicrobial biosurfactants and methods for using same” (priority 2012, dated 2015)
Values after ≈ are worked out from the molar mass of the structure shown. Where two headings read alike, the source gives them in different places. Values belong to the molecule of their own block, whether it stands above or below them.

Legend:
S. aureus = experiment: MIC determination in broth media, two fold dilution, microtiter plates; type: cell-based; conditions: Staphylococcus aureus, read-out: Minimum Inhibitory Concentration (MIC), alone (QA/QB)
Aspergillus niger = experiment: as above; type: cell-based
Candida albicans = experiment: as above; type: cell-based; conditions: read-out: Minimum Inhibitory Concentration (MIC), alone (QA/QB)
P. aeruginosa = experiment: as above; type: cell-based, Pseudomonas aeruginosa; conditions: for MIC: Pseudomonas aeruginosa
Bacillus cereus = experiment: as above; type: cell-based; conditions: read-out: Minimum Inhibitory Concentration (MIC), alone (QA/QB)
B. cepacia = experiment: as above; type: cell-based, Burkhlderia cepacia; conditions: for MIC: Burkholderia cepacia, read-out: Minimum Inhibitory Concentration (MIC), alone (QA/QB)
fungi = experiment: Challenge test of combinations of Rhamnolipids with Isothiazolinones in flat paint; type: cell-based; conditions: levels: RL 250 ppm, CMIT/MIT 5 ppm, MIT 25 ppm, BIT 50 ppm
Protocol: (§1) A second batch of flat paint formulation was prepared without any surfactants. Then Rhamnolipids (RL) were post-added to this formulation. The formulation was then subjected to an initial screen challenge test using 250 to 2000 ppm RL with mixed populations of E. coli and Pseudomonas aeruginosa.
(§2) Using the same paints, a biocide at lower use level was combined with Rhamnolipid (RL) at a minimum use of 250 ppm.

bacteria = experiment: as above; type: cell-based; conditions: levels: RL 250 ppm, CMIT/MIT 5 ppm, MIT 25 ppm, BIT 50 ppm
Protocol: as §1, §2

E. coli = experiment: MIC determination in broth media, two fold dilution, microtiter plates; type: cell-based; conditions: Escherichia coli, read-out: Minimum Inhibitory Concentration (MIC), alone (QA/QB), E. coli, substance alone
[1] = B. cepacia, substance alone, broth

- MIC (S. aureus; S. aureus, substance alone, broth): 25 µg/mL (≈ 165 µM)
- MIC (Aspergillus niger; substance alone, read-out: Minimum Inhibitory Concentration (MIC), alone (QA/QB)): 50 µg/mL (≈ 331 µM)
- MIC (Candida albicans; substance alone, broth): 25 µg/mL (≈ 165 µM)
- MIC (P. aeruginosa; P. aeruginosa, substance alone, read-out: Minimum Inhibitory Concentration (MIC), alone (QA/QB)): 25 µg/mL (≈ 165 µM)
- MIC (Bacillus cereus; substance alone, broth): 25 µg/mL (≈ 165 µM)
- Minimum Inhibitory Concentration (MIC), alone (QA/QB) (B. cepacia; [1]): 25 ppm
- MIC (B. cepacia; [1]): 50 µg/mL (≈ 331 µM)
Structure (SMILES): O=c1[nH]sc2ccccc12 [BIT, Benz Isothiazolinone]
- Day 1 Fungi growth (fungi): +
- Day 2 Fungi growth (fungi): +
- Day 5 Fungi growth (fungi): +
- Day 1 Bacteria growth (bacteria): −
- Day 2 Bacteria growth (bacteria): −
- Day 5 Bacteria growth (bacteria): −

Structure (SMILES): Cn1sccc1=O [MIT, Methyl Isothiazolinone]
- MIC (S. aureus): 25 µg/mL (≈ 217 µM)
- MIC (Aspergillus niger; read-out: Minimum Inhibitory Concentration (MIC), alone (QA/QB), Aspergillus niger, substance alone): > 100 µg/mL
- Minimum Inhibitory Concentration (MIC), alone (QA/QB) (Aspergillus niger; substance alone): 100 ppm
- MIC (Candida albicans): 100 µg/mL (≈ 868 µM)
- Minimum Inhibitory Concentration (MIC), alone (QA/QB) (P. aeruginosa; P. aeruginosa, substance alone): 25 ppm
- MIC (P. aeruginosa; read-out: Minimum Inhibitory Concentration (MIC), alone (QA/QB), P. aeruginosa, substance alone): 12.5 µg/mL (≈ 109 µM)
- MIC (Bacillus cereus): 25 µg/mL (≈ 217 µM)
- MIC (B. cepacia): 25 µg/mL (≈ 217 µM)
- Day 1 Fungi growth (fungi): +
- Day 2 Fungi growth (fungi): +
- Day 5 Fungi growth (fungi): −
- Day 1 Bacteria growth (bacteria): −
- Day 2 Bacteria growth (bacteria): −
- Day 5 Bacteria growth (bacteria): −
- MIC (E. coli): ~25 µg/mL (≈ 217 µM)
